Measured values from patent publication US10766928B2, “Targeted conformationally-constrained kinked endosomal disrupting peptides” (priority 2012, dated 2020).
Values after ≈ are worked out from the molar mass of the structure shown. Like-named read-outs stand apart in the source and are kept apart here. Non-standard residues stand in square brackets, D forms with d. Residues, ends and D or L forms follow the SMILES beside them. *: point of attachment. Pentanoyl(5-NH-cholesteryl) = CC(C)CCC[C@@H](C)[C@H]1CC[C@H]2[C@@H]3CC=C4C[C@@H](NCCCCC(=O)*)CC[C@]4(C)[C@H]3CC[C@]12C; Cholesteryloxycarbonyl = CC(C)CCC[C@@H](C)[C@H]1CC[C@H]2[C@@H]3CC=C4C[C@@H](OC(=O)*)CC[C@]4(C)[C@H]3CC[C@]12C; PEG3 = NCCOCCOCCOCCC(=O)O; Pra = C#CC[C@H](N)C(=O)O; Aib = CC(C)(N)C(=O)O; βAla = NCCC(=O)O

Legend:
[1] = system: endosomes of Jurkat lymphocytes; test: Endosome disruption in Jurkat lymphocytes: release of carboxyfluorescein from disulfide probe Compound 2, flow cytometry; details: for Efficacy (% of 1): % of the effect of compound 1, calculated span of dose-response curve, ± standard deviation; for Efficacy (% of 1) / Efficacy (% of max. 1): Jurkat; for Efficacy (% of max. 1): % change in cellular fluorescence relative to maximal response of Compound 1 (100%)
How it was run: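 Human Jurkat cells treated with compounds plus disulfide probe Compound 2 (2.5 μM) for 14 h at 37 °C. Cytoplasmic release of pH-sensitive fluorophore Compound 3 quantified by flow cytometry. IC50 by non-linear regression; efficacy as % fluorescence change relative to Compound 1 maximum (100%).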

[2] = system: Jurkat lymphocytes
Protocol: The effects of the compounds of the invention on human Juikat leukemia cells were evaluated using flow cytometry-based assays of potency, efficacy, and toxicity. […] Analysis of flow cytometry data by non-linear regression was used to determine IC50 values for potency with the efficacy expressed as a percentage. […] Dose-dependent effects on cellular viability after 48 h at 37° C. in culture were also measured by flow cytometry.
The # represents the compound number in accordance with Tables A, B, and C. Concentrations of compound stock solutions were determined by absorbance measurements at 280 nm. Efficacy was determined as % change in cellular fluorescence relative to the maximal response of Compound 1, defined as 100%. Potencies and efficacies in Jurkat lymphocytes were measured by flow cytometry after treatment of cells with the compounds listed and the fluorescent probe Compound 2 (2.5 μM) for 14 hours. Toxicity to this cell line was determined by flow cytometry analysis of light scattering and counterstaining with PI after treatment for 48 h at 37° C. in culture. […] N.D., not determined.

[3] = Thermodynamic solubility in PBS (pH 7.4); assay type: physicochemical; details: for solubility thermodynamic at 24 h / solubility at 24 h: phosphate buffered saline
Source text: Values in parentheses represent 95% confidence intervals. N.D., not determined.
Measurements represent duplicate or more replicates, with active peptides subjected to multiple replicates. ND: not determined. The peptide was non-toxic and soluble in cell culture medium at this concentration.

[4] = read-out: Potency, Table 2, EC50 ± standard deviation, Jurkat lymphocytes, disulfide-linked fluorescent probe (2.5 μM), 14 h
[5] = read-out: Toxicity, Table 3, IC50, Jurkat, 48 h at 37° C., footnote a: non-toxic and soluble in cell culture medium at this concentration
[6] = pH 7.4, Table 3, PBS pH 7.4, 24 h at 22° C., read-out: Solubility
[7] = read-out: Potency (EC50), Table 1, Jurkat lymphocytes, probe Compound 2 (2.5 μM), 14 hours, 95% confidence interval in neighbouring cell
[8] = pH 7.4, Table 1, PBS pH 7.4, 24 hours at 22° C., ±S.D., read-out: Solubility (aq.)
[9] = Table 1, PBS pH 7.4, 24 hours at 22° C., ±S.D., read-out: Solubility (aq.)

SMILES	Efficacy (% of 1) ([1]; Table 2, 14 h) [%]	EC50 [1, 4] [µM]	IC50 [2, 5] [µM]	solubility thermodynamic at 24 h [3, 6] [µM]	solubility thermodynamic at 24 h [3, 8] [µM]	EC50 ([1]; 14 h) [µM]	IC50 ([2]; 48 h) [µM]	further results
CC(C)[C@H](NC(=O)[C@@H](NC(=O)[C@@H]1CCCN1C(=O)[C@@H]1CCCN1C(=O)[C@H](Cc1ccc(O)cc1)NC(=O)[C@H](Cc1c[nH]c2ccccc12)NC(=O)[C@H](C)NC(=O)[C@H](Cc1ccc(O)cc1)NC(=O)[C@H](Cc1c[nH]c2ccccc12)NC(=O)[C@H](C)NC(=O)[C@H](Cc1ccc(O)cc1)NC(=O)[C@H](Cc1c[nH]c2ccccc12)NC(=O)C(C)(C)NC(=O)C(C)(C)NC(=O)C(C)(C)NC(=O)C(C)(C)N)C(C)C)C(N)=O [Compound 80] (H-[Aib][Aib][Aib][Aib]WYAWYAWYPPVV-NH2)	113 ± 4	0.28 ± 0.1	> 16	5 ± 2 (≈ 9.7 µg/mL)				
CC(C)[C@H](NC(=O)[C@@H](NC(=O)[C@@H]1CCCN1C(=O)[C@@H]1CCCN1C(=O)[C@H](Cc1c[nH]c2ccccc12)NC(=O)[C@H](Cc1c[nH]c2ccccc12)NC(=O)[C@H](C)NC(=O)[C@H](Cc1ccc(O)cc1)NC(=O)[C@H](Cc1c[nH]c2ccccc12)NC(=O)C(C)(C)NC(=O)C(C)(C)NC(=O)C(C)(C)NC(=O)C(C)(C)N)C(C)C)C(N)=O [Compound 53] (H-[Aib][Aib][Aib][Aib]WYAWWPPVV-NH2)	96 ± 12	6.7 ± 0.8	> 16	29 ± 3 (≈ 44.7 µg/mL)				Efficacy (% of max. 1) ([1]; Table 1, 14 hours): 104%; EC50 [1, 7]: 7.1 µM
CC(=O)NC(C)(C)C(=O)NC(C)(C)C(=O)NC(C)(C)C(=O)NC(C)(C)C(=O)N[C@@H](Cc1c[nH]c2ccccc12)C(=O)N[C@@H](Cc1c[nH]c2ccccc12)C(=O)N[C@@H](C)C(=O)N[C@@H](Cc1ccc(O)cc1)C(=O)N[C@@H](Cc1c[nH]c2ccccc12)C(=O)N1CCC[C@H]1C(=O)N1CCC[C@H]1C(=O)N[C@H](C(=O)N[C@@H](C)C(N)=O)C(C)C [Compound 42] (Ac-[Aib][Aib][Aib][Aib]WWAYWPPVA-NH2)					11 ± 1 (≈ 17.1 µg/mL)			Efficacy (% of max. 1) ([1]; Table 1, 14 hours): 85%; EC50 [1, 7]: 5.3 µM; IC50 ([2]; read-out: Toxicity (IC50), Table 1, Jurkat lymphocytes, 48 h at 37° C.): > 100 µM
CC(C)CCC[C@@H](C)[C@H]1CC[C@H]2[C@@H]3CC=C4C[C@@H](OC(=O)NCCC(=O)NCCC(=O)N[C@@H](CCC(=O)O)C(=O)N[C@@H](CCC(=O)O)C(=O)NCCOCCOCCOCCC(=O)NCCOCCOCCOCCC(=O)NC(C)(C)C(=O)NC(C)(C)C(=O)NC(C)(C)C(=O)NC(C)(C)C(=O)N[C@@H](Cc5c[nH]c6ccccc56)C(=O)N[C@@H](Cc5c[nH]c6ccccc56)C(=O)N[C@@H](C)C(=O)N[C@@H](Cc5ccc(O)cc5)C(=O)N[C@@H](Cc5c[nH]c6ccccc56)C(=O)N5CCC[C@H]5C(=O)N5CCC[C@H]5C(=O)N[C@H](C(=O)N[C@@H](C)C(N)=O)C(C)C)CC[C@]4(C)[C@H]3CC[C@]12C [Compound 34, R″ = BEEOOUUUUWWAYWPPVA-CONH2] ({Cholesteryloxycarbonyl-βAla-βAla}-EE[PEG3][PEG3][Aib][Aib][Aib][Aib]WWAYWPPVA-NH2)						0.1	17	solubility at 24 h [3, 9]: 405 µM (≈ 1110 µg/mL)
C#CC[C@H](NC(=O)[C@H](CCC(=O)O)NC(=O)[C@H](CCC(=O)O)NC(=O)CCNC(=O)CCNC(=O)O[C@H]1CC[C@@]2(C)C(=CC[C@H]3[C@@H]4CC[C@H]([C@H](C)CCCC(C)C)[C@@]4(C)CC[C@@H]32)C1)C(=O)NCCOCCOCCOCCC(=O)NCCOCCOCCOCCC(=O)NC(C)(C)C(=O)NC(C)(C)C(=O)NC(C)(C)C(=O)NC(C)(C)C(=O)N[C@@H](Cc1c[nH]c2ccccc12)C(=O)N[C@@H](Cc1c[nH]c2ccccc12)C(=O)N[C@@H](C)C(=O)N[C@@H](Cc1ccc(O)cc1)C(=O)N[C@@H](Cc1c[nH]c2ccccc12)C(=O)N1CCC[C@H]1C(=O)N1CCC[C@H]1C(=O)N[C@H](C(=O)N[C@@H](C)C(N)=O)C(C)C [Compound 35, R″ = BEEZOOUUUUWWAYWPPVA-CONH2] ({Cholesteryloxycarbonyl-βAla-βAla}-EE[Pra][PEG3][PEG3][Aib][Aib][Aib][Aib]WWAYWPPVA-NH2)					649 ± 11 (≈ 1840 µg/mL)	0.11	13	Difference in solubility relative to Compound 31 ([3]; PBS): greater than hundredfold
C#CC[C@H](NC(=O)[C@H](CCC(=O)O)NC(=O)[C@H](CCC(=O)O)NC(=O)CCNC(=O)CCCCN[C@H]1CC[C@@]2(C)C(=CC[C@H]3[C@@H]4CC[C@H]([C@H](C)CCCC(C)C)[C@@]4(C)CC[C@@H]32)C1)C(=O)NCCOCCOCCOCCC(=O)NCCOCCOCCOCCC(=O)NC(C)(C)C(=O)NC(C)(C)C(=O)NC(C)(C)C(=O)NC(C)(C)C(=O)N[C@@H](Cc1c[nH]c2ccccc12)C(=O)N[C@@H](Cc1c[nH]c2ccccc12)C(=O)N[C@@H](C)C(=O)N[C@@H](Cc1ccc(O)cc1)C(=O)N[C@@H](Cc1c[nH]c2ccccc12)C(=O)N1CCC[C@H]1C(=O)N1CCC[C@H]1C(=O)N[C@H](C(=O)N[C@@H](C)C(N)=O)C(C)C [Compound 31, R = BEEZOOUUUUWWAYWPPVA-CONH2] ({Pentanoyl(5-NH-cholesteryl)-βAla}-EE[Pra][PEG3][PEG3][Aib][Aib][Aib][Aib]WWAYWPPVA-NH2)					< 5	0.08	4	Solubility (aq., μM) ([3]; Table 1, PBS pH 7.4, 24 hours at 22° C., ±S.D.): 5 ± 1 µM (≈ 14.1 µg/mL)
CC(=O)NC(C)(C)C(=O)NC(C)(C)C(=O)NC(C)(C)C(=O)NC(C)(C)C(=O)N[C@@H](Cc1c[nH]c2ccccc12)C(=O)N[C@@H](Cc1c[nH]c2ccccc12)C(=O)N[C@@H](C)C(=O)N[C@@H](Cc1c[nH]c2ccccc12)C(=O)N[C@@H](Cc1ccc(O)cc1)C(=O)N1CCC[C@H]1C(=O)N1CCC[C@H]1C(=O)N[C@H](C(=O)N[C@H](C(N)=O)C(C)C)C(C)C [Compound 78] (Ac-[Aib][Aib][Aib][Aib]WWAWYPPVV-NH2)	70 ± 2	2.3 ± 0.3	> 16	5 ± 1 (≈ 7.92 µg/mL)				
C#CC[C@H](NC(=O)[C@H](CCC(=O)O)NC(=O)[C@H](CCC(=O)O)NC(=O)CCNC(=O)CCNC(=O)O[C@H]1CC[C@@]2(C)C(=CC[C@H]3[C@@H]4CC[C@H]([C@H](C)CCCC(C)C)[C@@]4(C)CC[C@@H]32)C1)C(=O)NCCOCCOCCOCCC(=O)NCCOCCOCCOCCC(=O)NC(C)(C)C(=O)NC(C)(C)C(=O)NC(C)(C)C(=O)NC(C)(C)C(=O)N[C@@H](Cc1c[nH]c2ccccc12)C(=O)N[C@@H](Cc1c[nH]c2ccccc12)C(=O)N[C@@H](C)C(=O)N[C@@H](Cc1ccc(O)cc1)C(=O)N[C@@H](Cc1ccc(O)cc1)C(=O)N1CCC[C@H]1C(=O)N1CCC[C@H]1C(=O)N[C@H](C(=O)N[C@H](C(N)=O)C(C)C)C(C)C [Compound 37, R″ = BEEZOOUUUUWWAYYPPVV-CONH2] ({Cholesteryloxycarbonyl-βAla-βAla}-EE[Pra][PEG3][PEG3][Aib][Aib][Aib][Aib]WWAYYPPVV-NH2)					348 ± 13 (≈ 986 µg/mL)	0.04	3	IC50 ([1]; 14 h): 0.04 µM
C#CC[C@H](NC(=O)CCNC(=O)CCNC(=O)O[C@H]1CC[C@@]2(C)C(=CC[C@H]3[C@@H]4CC[C@H]([C@H](C)CCCC(C)C)[C@@]4(C)CC[C@@H]32)C1)C(=O)NCCOCCOCCOCCC(=O)NCCOCCOCCOCCC(=O)NC(C)(C)C(=O)NC(C)(C)C(=O)NC(C)(C)C(=O)NC(C)(C)C(=O)N[C@@H](Cc1c[nH]c2ccccc12)C(=O)N[C@@H](Cc1c[nH]c2ccccc12)C(=O)N[C@@H](C)C(=O)N[C@@H](Cc1ccc(O)cc1)C(=O)N[C@@H](Cc1c[nH]c2ccccc12)C(=O)N1CCC[C@H]1C(=O)N1CCC[C@H]1C(=O)N[C@H](C(=O)N[C@@H](C)C(N)=O)C(C)C [Compound 33, R″ = BZOOUUUUWWAYWPPVA-CONH2] ({Cholesteryloxycarbonyl-βAla-βAla}-[Pra][PEG3][PEG3][Aib][Aib][Aib][Aib]WWAYWPPVA-NH2)						0.13	> 100	solubility at 24 h [3, 9]: 2 µM (≈ 5.14 µg/mL)
